{
  "source": "patent US8933230B2",
  "about": "“Phosphorus-containing group-substituted quinoline, its preparation process, medical composition containing the compounds and application” (priority 2011, dated 2015)",
  "assay_in_all_cases": "KinomeScan kinase panel",
  "assay_type_in_all_cases": "binding",
  "key": {"PRKCD": {"molecular_target": "T1, PRKCD (Homo sapiens, UniProt Q05655)", "T1 construct": "purchased DiscoveRx Corporation (KinomeScan)", "protocol": "(§1) In this example, the compound prepared in Example 10, N1-[4-[[7-[[1-(diethoxyphosphorylmethyl)-4-piperidinyl]methoxyl]-6-methoxyl-4-quinolyl]oxyl]-3-fluorophenyl]-N1′-(4-fluorophenyl)cyclopropane-1,1-dicarboxamide is tested for the inhibitory effect in the 442-kinase panel of KinomeScan™ (www.kinomescan.com) from DiscoveRx Corporation (4215 Sorrento Valley Blvd, San Diego, Calif. 92121) at 1000 nM of the compound concentration, the results are shown in the following Table 5:\n(§2) For the detailed information of the screening technique, see Fabian, M. A. et al, Nat., Biotechnol. 2005, 23, 329 and Karaman, M. W. et al, Nat., Biotechnol. 2008, 26, 127. It can be seen from the following representative results that, the compound according to the present invention has significant inhibitory effect on kinases including c-Met, KDR or VEGFR2, RET, PDGFR-β, c-KIT, Flt3, MEK5, DDR1, LOK, CSF1R, EPHA7, EPHA8, EPHB6, MKNK2, BLK, HIPK4, HCK, Flt4 and the mutants thereof"}, "DAPK3": {"molecular_target": "T2, DAPK3 (Homo sapiens, UniProt O43293)", "T2 construct": "purchased DiscoveRx Corporation (KinomeScan)", "protocol": "as §1, §2"}, "DMPK2": {"molecular_target": "T3, DMPK2 (Homo sapiens, UniProt Q6DT37)", "T3 construct": "purchased DiscoveRx Corporation (KinomeScan)", "protocol": "as §1, §2"}, "AMPK-alpha1": {"molecular_target": "T4, AMPK-alpha1 (Homo sapiens, UniProt Q13131)", "T4 construct": "purchased DiscoveRx Corporation (KinomeScan)", "protocol": "as §1, §2"}, "BMPR1A": {"molecular_target": "T5, BMPR1A (Homo sapiens, UniProt P36894)", "T5 construct": "purchased DiscoveRx Corporation (KinomeScan)", "T5 sequence (P36894 24-532)": "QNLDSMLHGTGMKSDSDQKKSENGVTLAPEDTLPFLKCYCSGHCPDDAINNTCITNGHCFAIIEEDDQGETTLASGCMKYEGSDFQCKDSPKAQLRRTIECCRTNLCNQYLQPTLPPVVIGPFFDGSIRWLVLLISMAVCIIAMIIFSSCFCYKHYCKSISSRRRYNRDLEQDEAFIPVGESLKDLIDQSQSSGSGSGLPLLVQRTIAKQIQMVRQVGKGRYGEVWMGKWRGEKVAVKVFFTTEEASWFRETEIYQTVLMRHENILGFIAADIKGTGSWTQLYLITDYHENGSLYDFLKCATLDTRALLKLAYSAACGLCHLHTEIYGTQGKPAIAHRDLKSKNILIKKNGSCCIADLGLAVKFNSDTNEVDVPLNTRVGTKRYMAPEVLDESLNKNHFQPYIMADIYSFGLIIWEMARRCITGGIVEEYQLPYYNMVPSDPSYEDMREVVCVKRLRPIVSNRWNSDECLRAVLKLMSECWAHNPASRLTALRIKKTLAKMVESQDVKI", "protocol": "as §1, §2"}, "TNIK": {"molecular_target": "T6, TNIK (Homo sapiens, UniProt Q9UKE5)", "T6 construct": "purchased DiscoveRx Corporation (KinomeScan)", "protocol": "as §1, §2"}, "[1]": {"molecular_target": "T7, TYK2(JH1domain-catalytic) (Homo sapiens, UniProt P29597)", "T7 construct": "JH1domain; purchased DiscoveRx Corporation (KinomeScan)", "T7 sequence (P29597 897-1176 limits assumed)": "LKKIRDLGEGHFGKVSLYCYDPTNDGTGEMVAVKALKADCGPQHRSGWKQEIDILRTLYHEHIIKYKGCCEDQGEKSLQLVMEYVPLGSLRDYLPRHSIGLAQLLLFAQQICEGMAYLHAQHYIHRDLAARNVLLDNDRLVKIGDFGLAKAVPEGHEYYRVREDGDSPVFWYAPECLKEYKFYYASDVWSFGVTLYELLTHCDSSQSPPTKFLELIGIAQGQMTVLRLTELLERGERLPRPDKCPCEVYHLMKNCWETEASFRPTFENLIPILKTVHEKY", "protocol": "as §1, §2"}, "CSNK1A1L": {"molecular_target": "T8, CSNK1A1L (Homo sapiens, UniProt Q8N752)", "T8 construct": "purchased DiscoveRx Corporation (KinomeScan)", "protocol": "as §1, §2"}, "TEC": {"molecular_target": "T9, TEC (Homo sapiens, UniProt P42680)", "T9 construct": "purchased DiscoveRx Corporation (KinomeScan)", "protocol": "as §1, §2"}, "FLT1": {"molecular_target": "T10, FLT1 (Homo sapiens, UniProt P17948)", "T10 construct": "purchased DiscoveRx Corporation (KinomeScan)", "T10 sequence (P17948 27-1338)": "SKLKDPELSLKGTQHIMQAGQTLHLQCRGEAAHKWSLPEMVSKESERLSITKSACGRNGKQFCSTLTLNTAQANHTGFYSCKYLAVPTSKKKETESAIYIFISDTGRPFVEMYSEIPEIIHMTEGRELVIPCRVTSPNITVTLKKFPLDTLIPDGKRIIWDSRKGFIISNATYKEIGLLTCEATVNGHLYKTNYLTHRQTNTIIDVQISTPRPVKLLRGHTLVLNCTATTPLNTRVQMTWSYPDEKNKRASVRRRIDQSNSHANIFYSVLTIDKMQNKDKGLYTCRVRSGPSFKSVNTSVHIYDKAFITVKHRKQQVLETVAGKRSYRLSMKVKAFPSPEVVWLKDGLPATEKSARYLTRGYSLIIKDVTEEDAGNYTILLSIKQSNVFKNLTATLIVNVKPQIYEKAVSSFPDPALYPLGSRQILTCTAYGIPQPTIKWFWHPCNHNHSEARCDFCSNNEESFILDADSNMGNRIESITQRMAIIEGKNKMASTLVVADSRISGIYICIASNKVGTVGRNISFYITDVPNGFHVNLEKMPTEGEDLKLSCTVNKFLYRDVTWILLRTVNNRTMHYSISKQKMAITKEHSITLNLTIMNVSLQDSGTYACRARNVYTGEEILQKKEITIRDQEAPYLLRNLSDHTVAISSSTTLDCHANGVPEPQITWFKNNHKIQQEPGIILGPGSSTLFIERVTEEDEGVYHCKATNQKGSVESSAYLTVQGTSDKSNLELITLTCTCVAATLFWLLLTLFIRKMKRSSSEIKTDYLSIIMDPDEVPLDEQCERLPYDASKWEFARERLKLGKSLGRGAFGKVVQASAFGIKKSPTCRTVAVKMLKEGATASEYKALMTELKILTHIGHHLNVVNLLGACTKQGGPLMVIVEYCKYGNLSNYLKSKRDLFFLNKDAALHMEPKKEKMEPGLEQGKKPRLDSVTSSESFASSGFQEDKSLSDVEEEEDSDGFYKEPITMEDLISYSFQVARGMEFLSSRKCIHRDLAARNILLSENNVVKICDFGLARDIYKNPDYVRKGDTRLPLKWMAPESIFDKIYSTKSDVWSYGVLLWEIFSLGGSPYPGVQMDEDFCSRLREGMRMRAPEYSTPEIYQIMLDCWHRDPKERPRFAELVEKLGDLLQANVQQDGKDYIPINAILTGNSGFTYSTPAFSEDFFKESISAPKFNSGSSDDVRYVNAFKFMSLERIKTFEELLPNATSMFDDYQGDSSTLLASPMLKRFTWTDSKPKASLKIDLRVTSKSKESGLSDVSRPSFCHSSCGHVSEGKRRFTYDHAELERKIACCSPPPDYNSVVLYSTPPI", "protocol": "as §1, §2"}, "CDC2L5": {"molecular_target": "T11, CDC2L5 (Homo sapiens, UniProt Q14004)", "T11 construct": "purchased DiscoveRx Corporation (KinomeScan)", "protocol": "as §1, §2"}, "RET (V804L)": {"molecular_target": "T12, RET (V804L) (Homo sapiens, UniProt P07949, V804L)", "T12 construct": "purchased DiscoveRx Corporation", "T12 sequence (P07949 29-1114 V804L)": "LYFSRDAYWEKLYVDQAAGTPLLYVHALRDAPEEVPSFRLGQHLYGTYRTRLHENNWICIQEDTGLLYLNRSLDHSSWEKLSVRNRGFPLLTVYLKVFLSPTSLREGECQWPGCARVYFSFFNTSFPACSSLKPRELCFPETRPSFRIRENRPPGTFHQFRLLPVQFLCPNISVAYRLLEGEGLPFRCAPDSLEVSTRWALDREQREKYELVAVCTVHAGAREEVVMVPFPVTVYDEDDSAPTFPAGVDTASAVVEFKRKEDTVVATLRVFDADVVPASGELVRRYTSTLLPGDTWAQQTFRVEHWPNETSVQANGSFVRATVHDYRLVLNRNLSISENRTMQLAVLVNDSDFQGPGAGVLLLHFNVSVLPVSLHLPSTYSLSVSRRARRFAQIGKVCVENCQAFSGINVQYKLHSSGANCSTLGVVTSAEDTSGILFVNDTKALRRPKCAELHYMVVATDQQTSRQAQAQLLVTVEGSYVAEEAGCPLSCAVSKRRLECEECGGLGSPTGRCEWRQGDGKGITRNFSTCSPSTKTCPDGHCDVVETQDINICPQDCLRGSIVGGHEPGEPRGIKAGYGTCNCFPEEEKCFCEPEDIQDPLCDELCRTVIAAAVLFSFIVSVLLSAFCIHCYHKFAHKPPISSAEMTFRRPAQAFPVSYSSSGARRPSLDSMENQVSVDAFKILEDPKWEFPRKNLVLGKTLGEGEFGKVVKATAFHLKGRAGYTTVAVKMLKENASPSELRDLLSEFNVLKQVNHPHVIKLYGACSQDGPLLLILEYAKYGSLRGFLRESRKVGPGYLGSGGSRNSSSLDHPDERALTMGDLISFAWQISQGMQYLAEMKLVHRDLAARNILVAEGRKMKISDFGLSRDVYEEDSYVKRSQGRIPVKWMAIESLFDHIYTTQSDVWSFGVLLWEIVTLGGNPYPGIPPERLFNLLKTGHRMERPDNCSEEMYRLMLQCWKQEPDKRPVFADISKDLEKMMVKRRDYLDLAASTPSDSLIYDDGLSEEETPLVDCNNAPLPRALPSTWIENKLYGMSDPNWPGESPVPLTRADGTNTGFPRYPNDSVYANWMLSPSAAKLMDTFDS", "protocol": "as §1, §2"}, "PIK3CD": {"molecular_target": "T13, PIK3CD (Homo sapiens, UniProt O00329)", "T13 construct": "purchased DiscoveRx Corporation (KinomeScan)", "protocol": "as §1, §2"}, "MKNK2": {"molecular_target": "T14, MKNK2 (Homo sapiens, UniProt Q9HBH9)", "T14 construct": "purchased DiscoveRx Corporation (KinomeScan)", "protocol": "as §1, §2"}, "PHKG2": {"molecular_target": "T15, PHKG2 (Homo sapiens, UniProt P15735)", "T15 construct": "purchased DiscoveRx Corporation (KinomeScan)", "protocol": "as §1, §2"}, "DRAK2": {"molecular_target": "T16, DRAK2 (Homo sapiens, UniProt O94768)", "T16 construct": "purchased DiscoveRx Corporation (KinomeScan)", "protocol": "as §1, §2"}, "RET (M918T)": {"molecular_target": "T17, RET (M918T) (Homo sapiens, UniProt P07949, M918T)", "T17 construct": "purchased DiscoveRx Corporation", "T17 sequence (P07949 29-1114 M918T)": "as the sequence (P07949 29-1114 V804L) above, with L776V, M890T counted along it", "protocol": "as §1, §2"}, "FES": {"molecular_target": "T18, FES (Homo sapiens, UniProt P07332)", "T18 construct": "purchased DiscoveRx Corporation (KinomeScan)", "protocol": "as §1, §2"}, "EGFR(T790M)": {"molecular_target": "T19, EGFR(T790M) (Homo sapiens, UniProt P00533, T790M)", "T19 construct": "purchased DiscoveRx Corporation (KinomeScan)", "protocol": "as §1, §2"}, "FGFR1": {"molecular_target": "T20, FGFR1 (Homo sapiens, UniProt P11362)", "T20 construct": "purchased DiscoveRx Corporation (KinomeScan)", "protocol": "as §1, §2"}, "BRSK2": {"molecular_target": "T21, BRSK2 (Homo sapiens, UniProt Q8IWQ3)", "T21 construct": "purchased DiscoveRx Corporation (KinomeScan)", "protocol": "as §1, §2"}, "NEK5": {"molecular_target": "T22, NEK5 (Homo sapiens, UniProt Q6P3R8)", "T22 construct": "purchased DiscoveRx Corporation (KinomeScan panel)", "protocol": "as §1, §2"}, "KIT": {"molecular_target": "T23, KIT (Homo sapiens, UniProt P10721)", "T23 construct": "purchased DiscoveRx Corporation (KinomeScan)", "protocol": "as §1, §2"}, "PYK2": {"molecular_target": "T24, PYK2 (Homo sapiens, UniProt Q14289)", "T24 construct": "purchased DiscoveRx Corporation", "protocol": "as §1, §2"}, "MAP4K5": {"molecular_target": "T25, MAP4K5 (Homo sapiens, UniProt Q9Y4K4)", "T25 construct": "purchased DiscoveRx Corporation (KinomeScan)", "protocol": "as §1, §2"}, "PRKCI": {"molecular_target": "T26, PRKCI (Homo sapiens, UniProt P41743)", "T26 construct": "purchased DiscoveRx Corporation (KinomeScan)", "protocol": "as §1, §2"}, "CSK": {"molecular_target": "T27, CSK (Homo sapiens, UniProt P41240)", "T27 construct": "purchased DiscoveRx Corporation (KinomeScan)", "protocol": "as §1, §2"}, "FYN": {"molecular_target": "T28, FYN (Homo sapiens, UniProt P06241)", "T28 construct": "purchased DiscoveRx Corporation (KinomeScan)", "protocol": "as §1, §2"}, "AURKB": {"molecular_target": "T29, AURKB (Homo sapiens, UniProt Q96GD4)", "T29 construct": "purchased DiscoveRx Corporation (KinomeScan)", "protocol": "as §1, §2"}, "DDR1": {"molecular_target": "T30, DDR1 (Homo sapiens, UniProt Q08345)", "T30 construct": "purchased DiscoveRx Corporation (KinomeScan)", "T30 sequence (Q08345 19-913)": "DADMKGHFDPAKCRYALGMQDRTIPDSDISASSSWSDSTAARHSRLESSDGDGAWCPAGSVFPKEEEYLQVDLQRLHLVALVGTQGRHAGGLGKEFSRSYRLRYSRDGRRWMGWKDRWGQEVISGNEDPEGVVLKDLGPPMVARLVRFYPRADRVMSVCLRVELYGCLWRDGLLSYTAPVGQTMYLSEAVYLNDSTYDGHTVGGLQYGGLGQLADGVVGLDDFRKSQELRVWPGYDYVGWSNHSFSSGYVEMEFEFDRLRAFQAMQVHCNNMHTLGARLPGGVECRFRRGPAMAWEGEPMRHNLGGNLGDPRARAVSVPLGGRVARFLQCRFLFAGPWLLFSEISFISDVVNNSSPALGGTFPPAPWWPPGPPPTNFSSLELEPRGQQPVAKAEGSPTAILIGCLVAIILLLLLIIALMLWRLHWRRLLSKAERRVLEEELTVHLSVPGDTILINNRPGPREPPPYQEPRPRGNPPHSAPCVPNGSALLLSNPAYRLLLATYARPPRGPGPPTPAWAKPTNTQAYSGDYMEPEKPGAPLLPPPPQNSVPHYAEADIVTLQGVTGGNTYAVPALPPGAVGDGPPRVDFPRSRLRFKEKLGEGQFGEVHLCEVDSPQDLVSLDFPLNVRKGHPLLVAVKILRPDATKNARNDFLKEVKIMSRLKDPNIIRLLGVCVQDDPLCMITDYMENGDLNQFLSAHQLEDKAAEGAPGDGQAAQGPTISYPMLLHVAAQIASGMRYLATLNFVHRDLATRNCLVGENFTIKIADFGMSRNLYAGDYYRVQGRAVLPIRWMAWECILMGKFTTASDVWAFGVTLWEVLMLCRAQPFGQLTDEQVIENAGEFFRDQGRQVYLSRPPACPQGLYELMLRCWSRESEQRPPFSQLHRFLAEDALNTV", "protocol": "as §1, §2"}, "FLT3(D835Y)": {"molecular_target": "T31, FLT3(D835Y) (Homo sapiens, UniProt P36888, D835Y)", "T31 construct": "purchased DiscoveRx Corporation (KinomeScan)", "protocol": "as §1, §2"}, "MARK4": {"molecular_target": "T32, MARK4 (Homo sapiens, UniProt Q96L34)", "T32 construct": "purchased DiscoveRx Corporation (KinomeScan)", "protocol": "as §1, §2"}, "CAMK2A": {"molecular_target": "T33, CAMK2A (Homo sapiens, UniProt Q9UQM7)", "T33 construct": "purchased DiscoveRx Corporation (KinomeScan)", "protocol": "as §1, §2"}, "MST1": {"molecular_target": "T34, MST1 (Homo sapiens, UniProt Q13043)", "T34 construct": "purchased DiscoveRx Corporation (KinomeScan)", "T34 sequence (Q13043 whole entry)": "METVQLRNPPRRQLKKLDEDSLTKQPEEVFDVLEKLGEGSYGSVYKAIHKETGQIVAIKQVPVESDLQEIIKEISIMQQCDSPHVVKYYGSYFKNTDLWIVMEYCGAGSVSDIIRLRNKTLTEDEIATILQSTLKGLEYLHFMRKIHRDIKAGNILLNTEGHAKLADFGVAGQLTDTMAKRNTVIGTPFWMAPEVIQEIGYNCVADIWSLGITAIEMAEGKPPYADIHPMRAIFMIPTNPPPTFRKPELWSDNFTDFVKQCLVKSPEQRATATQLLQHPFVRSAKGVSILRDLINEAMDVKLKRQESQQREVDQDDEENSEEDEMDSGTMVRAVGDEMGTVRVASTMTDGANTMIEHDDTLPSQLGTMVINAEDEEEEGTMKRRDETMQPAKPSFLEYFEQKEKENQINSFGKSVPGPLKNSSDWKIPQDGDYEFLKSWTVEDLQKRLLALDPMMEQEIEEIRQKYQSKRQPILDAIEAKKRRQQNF", "protocol": "as §1, §2"}, "TAK1": {"molecular_target": "T35, TAK1 (Homo sapiens, UniProt O43318)", "T35 construct": "purchased DiscoveRx Corporation (KinomeScan)", "protocol": "as §1, §2"}, "MST3": {"molecular_target": "T36, MST3 (Homo sapiens, UniProt Q9Y6E0)", "T36 construct": "purchased DiscoveRx Corporation (KinomeScan)", "T36 sequence (Q9Y6E0 whole entry)": "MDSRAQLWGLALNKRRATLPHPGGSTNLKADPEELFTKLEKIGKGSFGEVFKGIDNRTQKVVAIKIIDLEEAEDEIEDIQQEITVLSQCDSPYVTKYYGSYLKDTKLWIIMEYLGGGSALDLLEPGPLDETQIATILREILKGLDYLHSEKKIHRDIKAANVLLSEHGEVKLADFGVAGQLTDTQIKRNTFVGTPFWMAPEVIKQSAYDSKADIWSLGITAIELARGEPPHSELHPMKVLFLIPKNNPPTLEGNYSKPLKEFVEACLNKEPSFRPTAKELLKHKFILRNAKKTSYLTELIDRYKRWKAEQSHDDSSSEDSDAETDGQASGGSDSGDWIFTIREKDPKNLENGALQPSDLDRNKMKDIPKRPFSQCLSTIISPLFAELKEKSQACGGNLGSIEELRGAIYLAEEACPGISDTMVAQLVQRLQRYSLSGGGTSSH", "protocol": "as §1, §2"}},
  "data": [
    {"compound": "CCOP(=O)(CN1CCC(COc2cc3nccc(Oc4ccc(NC(=O)C5(C(=O)Nc6ccc(F)cc6)CC5)cc4F)c3cc2OC)CC1)OCC", "note": "[Example 10, N1-[4-[[7-[[1-(diethoxyphosphorylmethyl)-4-piperidinyl]methoxyl]-6-methoxyl-4-quinolyl]oxyl]-3-fluorophenyl]-N1′-(4-fluorophenyl)cyclopropane-1,1-dicarboxamide]", "values": [
      {"measurement": "% Ctrl@1000 nM", "setting": "PRKCD", "result": 100, "unit": "% Ctrl"},
      {"measurement": "% Ctrl@1000 nM", "setting": "DAPK3", "result": 100, "unit": "% Ctrl"},
      {"measurement": "% Ctrl@1000 nM", "setting": "DMPK2", "result": 76, "unit": "% Ctrl"},
      {"measurement": "% Ctrl@1000 nM", "setting": "AMPK-alpha1", "result": 100, "unit": "% Ctrl"},
      {"measurement": "% Ctrl@1000 nM", "setting": "BMPR1A", "result": 100, "unit": "% Ctrl"},
      {"measurement": "% Ctrl@1000 nM", "setting": "TNIK", "result": 70, "unit": "% Ctrl"},
      {"measurement": "% Ctrl@1000 nM", "setting": "[1]", "result": 92, "unit": "% Ctrl"},
      {"measurement": "% Ctrl@1000 nM", "setting": "CSNK1A1L", "result": 100, "unit": "% Ctrl"},
      {"measurement": "% Ctrl@1000 nM", "setting": "TEC", "result": 100, "unit": "% Ctrl"},
      {"measurement": "% Ctrl@1000 nM", "setting": "FLT1", "result": 7.3, "unit": "% Ctrl"},
      {"measurement": "% Ctrl@1000 nM", "setting": "CDC2L5", "result": 100, "unit": "% Ctrl"},
      {"measurement": "% Ctrl@1000 nM", "setting": "RET (V804L)", "result": 0.35, "unit": "% Ctrl"},
      {"measurement": "% Ctrl@1000 nM", "setting": "PIK3CD", "result": 100, "unit": "% Ctrl"},
      {"measurement": "% Ctrl@1000 nM", "setting": "MKNK2", "result": 0.05, "unit": "% Ctrl"},
      {"measurement": "% Ctrl@1000 nM", "setting": "PHKG2", "result": 96, "unit": "% Ctrl"},
      {"measurement": "% Ctrl@1000 nM", "setting": "DRAK2", "result": 100, "unit": "% Ctrl"},
      {"measurement": "% Ctrl@1000 nM", "setting": "RET (M918T)", "result": 0.05, "unit": "% Ctrl"},
      {"measurement": "% Ctrl@1000 nM", "setting": "FES", "result": 44, "unit": "% Ctrl"},
      {"measurement": "% Ctrl@1000 nM", "setting": "EGFR(T790M)", "result": 100, "unit": "% Ctrl"},
      {"measurement": "% Ctrl@1000 nM", "setting": "FGFR1", "result": 100, "unit": "% Ctrl"},
      {"measurement": "% Ctrl@1000 nM", "setting": "BRSK2", "result": 100, "unit": "% Ctrl"},
      {"measurement": "% Ctrl@1000 nM", "setting": "NEK5", "result": 97, "unit": "% Ctrl"},
      {"measurement": "% Ctrl@1000 nM", "setting": "KIT", "result": 0.2, "unit": "% Ctrl"},
      {"measurement": "% Ctrl@1000 nM", "setting": "PYK2", "result": 19, "unit": "% Ctrl"},
      {"measurement": "% Ctrl@1000 nM", "setting": "MAP4K5", "result": 2.8, "unit": "% Ctrl"},
      {"measurement": "% Ctrl@1000 nM", "setting": "PRKCI", "result": 100, "unit": "% Ctrl"},
      {"measurement": "% Ctrl@1000 nM", "setting": "CSK", "result": 14, "unit": "% Ctrl"},
      {"measurement": "% Ctrl@1000 nM", "setting": "FYN", "result": 48, "unit": "% Ctrl"},
      {"measurement": "% Ctrl@1000 nM", "setting": "AURKB", "result": 74, "unit": "% Ctrl"},
      {"measurement": "% Ctrl@1000 nM", "setting": "DDR1", "result": 0, "unit": "% Ctrl"},
      {"measurement": "% Ctrl@1000 nM", "setting": "FLT3(D835Y)", "result": 2.4, "unit": "% Ctrl"},
      {"measurement": "% Ctrl@1000 nM", "setting": "MARK4", "result": 100, "unit": "% Ctrl"},
      {"measurement": "% Ctrl@1000 nM", "setting": "CAMK2A", "result": 100, "unit": "% Ctrl"},
      {"measurement": "% Ctrl@1000 nM", "setting": "MST1", "result": 100, "unit": "% Ctrl"},
      {"measurement": "% Ctrl@1000 nM", "setting": "TAK1", "result": 75, "unit": "% Ctrl"},
      {"measurement": "% Ctrl@1000 nM", "setting": "MST3", "result": 100, "unit": "% Ctrl"}
    ]}
  ]
}
